The values below come from the Kinase Knowledgebase extract (Sharma et al. 2016).

The target in assay [1] is EGFR (murine) (UniProt P00533). As to conditions: nih3t3/c7.
Assay [2] has as its target MAPK14 (UniProt Q16539). Description: Cascade Assay for Inhibitors of the MAP Kinase Pathway.
Assay [3] addresses EGFR (human) (UniProt P00533). As to conditions: a431.
For assay [4], the target named is MAPK14 (human) (UniProt Q16539). Description: p38-alpha Kinase Inhibition. As to conditions: for activity: concentration not given here.
Sequence of MAPK14 (human) (Q16539 whole entry, looked up): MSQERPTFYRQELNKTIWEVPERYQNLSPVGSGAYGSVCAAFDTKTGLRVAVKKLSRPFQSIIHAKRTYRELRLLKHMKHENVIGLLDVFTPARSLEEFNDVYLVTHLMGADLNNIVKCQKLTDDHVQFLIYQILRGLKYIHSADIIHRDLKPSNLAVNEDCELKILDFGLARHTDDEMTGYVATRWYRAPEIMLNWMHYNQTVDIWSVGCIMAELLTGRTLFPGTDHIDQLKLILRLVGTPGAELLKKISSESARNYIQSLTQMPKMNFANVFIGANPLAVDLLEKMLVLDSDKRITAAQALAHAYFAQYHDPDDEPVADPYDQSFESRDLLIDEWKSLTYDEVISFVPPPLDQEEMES
The next assay addresses ROCK2 (rat) (UniProt Q62868). Description: ROCK-II Kinase Inhibition. Conditions: concentration not given here.
Assay [5] has as its target EGFR (UniProt P00533).
The target in assay [6] is EGFR (UniProt P00533). Description: Inhibition of EGFr Enzyme.
Sequence of EGFR (P00533 whole entry, looked up): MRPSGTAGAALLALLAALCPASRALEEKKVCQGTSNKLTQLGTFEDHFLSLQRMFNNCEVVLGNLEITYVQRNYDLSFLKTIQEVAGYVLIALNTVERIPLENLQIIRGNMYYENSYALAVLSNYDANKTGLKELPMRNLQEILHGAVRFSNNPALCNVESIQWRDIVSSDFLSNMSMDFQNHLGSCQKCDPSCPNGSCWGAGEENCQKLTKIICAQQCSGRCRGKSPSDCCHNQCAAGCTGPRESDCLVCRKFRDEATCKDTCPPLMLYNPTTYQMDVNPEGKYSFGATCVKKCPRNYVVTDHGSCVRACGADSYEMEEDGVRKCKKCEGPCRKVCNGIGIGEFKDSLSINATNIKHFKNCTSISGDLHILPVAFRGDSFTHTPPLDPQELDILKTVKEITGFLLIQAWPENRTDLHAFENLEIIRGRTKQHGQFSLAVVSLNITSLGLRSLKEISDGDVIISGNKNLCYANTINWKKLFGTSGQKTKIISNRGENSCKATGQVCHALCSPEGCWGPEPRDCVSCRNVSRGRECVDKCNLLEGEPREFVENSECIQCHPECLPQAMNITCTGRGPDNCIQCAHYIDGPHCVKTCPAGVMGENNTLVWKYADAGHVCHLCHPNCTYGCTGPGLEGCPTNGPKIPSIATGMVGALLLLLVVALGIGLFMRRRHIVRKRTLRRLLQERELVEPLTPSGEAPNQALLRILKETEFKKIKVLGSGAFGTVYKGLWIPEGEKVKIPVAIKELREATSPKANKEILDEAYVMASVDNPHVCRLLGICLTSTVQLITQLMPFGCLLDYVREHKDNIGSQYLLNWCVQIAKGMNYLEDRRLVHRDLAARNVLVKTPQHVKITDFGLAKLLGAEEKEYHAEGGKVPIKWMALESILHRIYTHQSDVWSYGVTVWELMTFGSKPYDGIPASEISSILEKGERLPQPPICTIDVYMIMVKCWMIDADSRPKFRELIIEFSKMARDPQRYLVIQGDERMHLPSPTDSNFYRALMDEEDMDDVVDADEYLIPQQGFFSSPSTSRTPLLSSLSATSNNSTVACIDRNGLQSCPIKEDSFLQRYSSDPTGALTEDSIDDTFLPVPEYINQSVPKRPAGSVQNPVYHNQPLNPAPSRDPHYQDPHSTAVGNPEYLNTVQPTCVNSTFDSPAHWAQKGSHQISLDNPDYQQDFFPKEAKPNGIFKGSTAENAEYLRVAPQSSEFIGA
The target in assay [7] is MAPK14 (UniProt Q16539). Description: CSBP Inhibition.
Sequence of MAPK14 (Q16539 whole entry, looked up): as the sequence (Q16539 whole entry, looked up) above
In assay [8] the target is CDK2 (UniProt P24941). As to the kind of experiment: Enzyme Assay.
For assay [9], the target named is CDK2 (human) (UniProt P24941). As to the kind of experiment: Enzyme Assay.
In assay [10] the target is CDK2 (UniProt P24941). As to the kind of experiment: Enzyme Assay. The source holds these as a separate data set.
Assay [11] concerns the target CDK2 (human) (UniProt P24941). As to the kind of experiment: Enzyme Assay. This is another data set of the same source.
For assay [12], the target named is MAPK14 (human) (UniProt Q16539). As to the kind of experiment: TNFalpha Inhibition. As to conditions: pbmc.
Assay [13] deals with EGFR (UniProt P00533). This is another data set of the same source.
Assay [14] deals with MAPK14 (human) (UniProt Q16539). Description: p38-mediated TNF-alpha Inhibition (LPS-Stimulated PBMCs). Conditions: pbmc.
Assay [15] addresses EGFR (UniProt P00533). As to conditions: balb/c 3t3.
Assay [16] deals with EGFR (UniProt P00533). This is another data set of the same source.
Assay [17] has as its target EGFR (human) (UniProt P00533). As to conditions: hn5.
The target of a further assay is EGFR (mouse) (UniProt P00533). Conditions: balb/mk.
The next assay has as its system MAPK14 (Drosophila). As to the kind of experiment: p38 Kinase Inhibition. Conditions: sf9.
In assay [18] the target is EGFR (murine) (UniProt P00533). Conditions: nih3t3.
Assay [19] has as its target EGFR (UniProt P00533). This is another data set of the same source.
Assay [20] addresses EGFR (murine) (UniProt P00533). Conditions: f/l-herc.

Numbered stars: 1 amine (or outer) side, 2 acyl side, 3 side chain; on linkers, the order of the positions; unused ones are H or OH. Square brackets hold non-standard residues; d marks the D form. Residues, ends and D or L forms follow the SMILES beside them. Peptide text beside a SMILES is read from it. ξ: configuration not given here. *: point of attachment. X1 = CC(=O)C(=O)CCc1ccc(CC(N[*:1])C(=O)[*:2])cc1; X2 = O=CC(=O)CCc1ccc(CC(N[*:1])C(=O)[*:2])cc1; Ile(3ξ) = CCC(C)[C@H](N)C(=O)O

Sequence of EGFR (murine) (P00533 whole entry, looked up): as the sequence (P00533 whole entry, looked up) above
Sequence of EGFR (human) (P00533 whole entry, looked up): as above

What is called IC50 is the concentration that gives 50% inhibition. The low end stands for greater potency, the high end for weaker potency. In the assay with EGFR (murine) [1], `O=C1Nc2ccccc2C1=Cc1ccc(N2CCOCC2)cc1` showed an IC50 of 20 µM. That is a double-digit micromolar value.

Consider `CN(Cc1cccnc1)S(=O)(=O)c1cc(C(=O)O)c(Nc2ccc(I)cc2Cl)c(F)c1F`, for which the IC50 against MAPK14 [2] is over 3 µM.

In turn, `CCOC(=O)C(C#N)=Cc1cc(C(C)(C)C)cc(C(C)(C)C)c1` gave an IC50 at EGFR (human) [3] of 20 µM. That is a double-digit micromolar value. With `COc1cc(OC)c(/C=C2/C(=O)Nc3ccccc32)c(OC)c1`, the values for the activity on MAPK14 (human) [4] and on ROCK2 (rat) were 86% and 96%, respectively. As for `CNc1cc2ncnc(Nc3cccc(Br)c3)c2cn1`, the IC50 against EGFR [5] amounted to 0.016 µM; on EGFR [6] it was 0.00013 µM. Compound `COC(=O)CCc1c(C)c[nH]c1C=C1C(=O)Nc2ccccc21` gave an IC100 with EGFR (murine) [1] of 100 µM. On MAPK14 [7], `C[S+]([O-])c1ccc(-c2ncn(C3CCN(CCC(=O)O)CC3)c2-c2ccnc([S+](C)[O-])n2)cc1` (stereo not drawn) had an IC50 of over 50 µM.

For `O=C1/C(=C2\Nc3ccccc3C2=O)Nc2ccccc21`, the IC50 was over 1000 µM against CDK2 [8], over 1000 µM at CDK2 (human) [9], 70 µM at CDK2 [10] and 70 µM at CDK2 (human) [11]. Compound `Cc1ccc(NC(=O)c2ccnc(N3CCOCC3)c2)cc1-n1cnc2ccc(N(C)CCCN(C)C)cc2c1=O` came in with an IC50 against MAPK14 (human) [12] of 2 µM.

In turn, `CCC(C)[C@H](NC(=O)[C@H](CCC(=O)O)NC(=O)[C@H](CCC(=O)O)NC(=O)C(Cc1ccc(CCC(=O)C(C)=O)cc1)NC(C)=O)C(=O)N[C@@H](CCC(=O)O)C(=O)O` (stereo partly drawn) (Ac-[X1]EE[Ile(3ξ)]E-OH) returned a 50% inhibitory concentration (IC50) against EGFR [13] of at most 260 µM.

For the compound `COc1ccc(CN(Cc2ccc(OC)cc2)S(=O)(=O)c2cc(C(=O)O)c(Nc3ccc(I)cc3Cl)c(F)c2F)cc1`, the IC50 against MAPK14 [2] was 3 µM. That is a single-digit micromolar value.

With `CCC(C)[C@H](NC(=O)[C@H](CCC(=O)O)NC(=O)[C@H](CCC(=O)O)NC(=O)C(Cc1ccc(CCC(=O)C=O)cc1)NC(C)=O)C(=O)N[C@@H](CCC(=O)O)C(=O)O` (stereo partly drawn) (Ac-[X2]EE[Ile(3ξ)]E-OH), the IC50 at EGFR [13] was at most 185 µM. The compound `O=C1NCN2N=C(Sc3ccc(F)cc3)C=CC2=C1c1c(Cl)cccc1Cl` displayed an IC50 on MAPK14 (human) [14] of 0.39 µM. Take `Clc1cccc(Nc2ncnc3[nH]c4ccccc4c23)c1`: the IC50 against EGFR [15] worked out at 0.1 µM. `COc1ccc2ncnc(Nc3cccc(Br)c3)c2c1OC` registered an IC50 against EGFR [16] of 1.37 µM. On the same count and under the same terms, the same measure for `COc1ccc2c(Nc3cccc(Br)c3)ncnc2c1OC`: over 10 µM. On to `Oc1ccc(-c2nc3ccc(O)cc3s2)cc1`, for which, at EGFR (human) [17], the IC50 is 130 µM. At MAPK14 (human) [4], `NC(=O)c1ccc(-c2nc(-c3ccc4c(c3)OCCO4)c(-c3ccccn3)[nH]2)cc1` returned an IC50 of 12 µM and an activity of 56%. The compound also gave an activity at ROCK2 (rat) of 96%. Consider `CC(C)(C)c1cc(C=C(C#N)C(N)=S)cc(C(C)(C)C)c1`, for which, at EGFR (human) [3], the IC50 is 20 µM. For the compound `Clc1cccc(Nc2ncnc3[nH]c(-c4ccccc4)c(-c4ccccc4)c23)c1`, the IC50 in the assay with EGFR (mouse) is over 50 µM. In turn, `Oc1ccc(-c2nc3c(O)cc(O)cc3s2)cc1` showed an IC50 on EGFR (human) [17] of 300 µM. In the assay on MAPK14 (Drosophila), `Cc1cc(F)ccc1-c1nc(N(C(N)=O)c2c(F)cccc2F)ccc1CO` came in with an IC50 of 0.027 µM. In other words, the double-digit nanomolar range. `CC(=O)OCCCCc1nc(-c2ccc(F)cc2)c(-c2ccncc2)n1COCC[Si](C)(C)C`: the inhibition on MAPK14 [7] (concentration not given here) stood at 74%. At MAPK14 (human) [12], `Cc1ccc(NC(=O)c2ccnc(N3CCOCC3)c2)cc1-n1cnc2c(N(C)CCCN(C)C)cccc2c1=O` showed an IC50 of 7 µM.

In the assay with EGFR (murine) [18], `COc1ccc(OC)c(/C=C2\C(=O)Nc3ccccc32)c1` displayed an IC50 of 11 µM.

For `Brc1cccc(Nc2ncnc3c2C2CCCCC2N3)c1` (stereo not drawn), the IC50 against EGFR [15] is 0.5 µM. Turning to `CNC(=O)[C@H](CCCCN)NC(=O)[C@H](CCCCN)NC(=O)[C@@H]1CCCN1C(=O)[C@H](CSCCOCCOCCn1cc(C2=C(c3c[nH]c4ccccc34)C(=O)NC2=O)c2ccccc21)NC(C)=O` (Ac-C(X1)PKK-NHMe), at EGFR [19], the inhibition amounted to 0. In the assay with EGFR (mouse), `Cc1cccc(Nc2ncnc3[nH]c4c(c23)CCCC4)c1` showed an IC50 of over 50 µM. In the assay with EGFR (murine) [20], `CN1C2CC[C@@]1(Nc1ncc3ncnc(Nc4ccc(F)c(Cl)c4)c3n1)CC(O)C2` (stereo partly drawn) displayed an IC50 of over 10 µM. As for `O=C1Nc2ccccc2/C1=C1/Nc2ccccc2C1=O`, the IC50 against CDK2 [8] amounted to 7.5 µM; on CDK2 (human) [9], 7.5 µM; on CDK2 [10], 2.2 µM; at CDK2 (human) [11], 2.2 µM. For the compound `COc1ccc(CN(Cc2ccc(OC)cc2)S(=O)(=O)c2cc(C(=O)NOCC3CC3)c(Nc3ccc(I)cc3Cl)c(F)c2F)cc1`, the IC50 on MAPK14 [2] is over 3 µM.

`O=C(N(c1ncc2ncnc(Nc3ccc(F)c(Cl)c3)c2n1)C1CCNCC1)C(F)(F)F`: in the assay with EGFR (murine) [20], the IC50 is over 20 µM.

In the case of `O=C1Nc2ccccc2/C1=C/c1ccncc1`, the IC50 with EGFR (murine) [18] is over 100 µM.
